# Results published in patent US7414042B2, “Method and composition for selectively inhibiting melanoma” (The Board of Trustees of The University of Illinois, priority 1995, dated 2008).
# “Also recorded” adds a separate entry of the source.
# Legend:
# [1] = tested on: human melanoma cells (MEL-2); experiment: In vivo activity against unestablished MEL-2 tumors in athymic mice; design: species or system athymic (nude) mice
# Method: To test the in vivo ability of betulinic acid to serve as an antineoplastic agent against malignant melanoma, a series of studies was performed with athymic (nude) mice injected subcutaneously with human melanoma cells (MEL-2). The initial study investigated the activity of betulinic acid against unestablished tumors. Treatment with betulinic acid began on day 1, i.e., 24 hours, following tumor cell injection. […] Such a discovery is important for individuals who are predisposed to melanoma due to hereditary or environmental factors.
# In particular, the data plotted in FIG. 1 was derived from experiments wherein four week old athymic mice were injected subcutaneously in the right flank with 3.0×10^8 UISO MEL-2 cells. UISO MEL-2 is a cell line derived from metastatic melanoma from human pleural fluid. Drug treatment was initiated on the day following tumor cell injection and continued every fourth day for a total of six doses. Four control animals received 0.5 ml intraperitoneal (IP) of PVP control solution, while treated animals (4 per group) received 50, 250 or 500 mg/kg/dose IP betulinic acid/PVP in deionized H2O. Betulinic acid was coprecipitated with PVP to increase solubility and bioavailability. The mice were weighed, and the tumors measured with a micrometer every other day throughout the study. […]
# [2] = tested on: MEL-2 cells; experiment: Formation of the 50 Kbp DNA fragment (apoptosis), field-inversion gel electrophoresis; assay type: cell-based, human
# Source text: Therefore, an important feature of the present invention is a method of analyzing and quantifying the formation of the 50 Kbp fragment as a biomarker for induction of apoptosis in human cancer cell lines. This method comprises treatment of cells in culture, followed by analysis of the total cellular DNA content using agarose field-inversion gel electrophoresis. Under these conditions, the 50 Kbp fragment is resolved as a diffuse band. The fraction of the total cellular DNA represented by the 50 Kbp fragment is determined by densitometry on the contour of this band.
# To investigate the ability of betulinic acid to induce apoptosis, the above-described method was adapted for use with the MEL-2 cell line. […]
# With further respect to FIG. 3A, cultured MEL-2 cells (10^6 cells inoculated per 25 cm^2 flask) were treated with […] betulinic acid (200 μg/ml DMSO, diluted 1:100 in media) for 24, 32, 48, 56 and 72 hours. […] Samples were analyzed on a 1% agarose gel in a Hoefer HE100 SuperSub apparatus cooled to 10° C. by a circulating water bath. […]
# Electrophoresis was performed at 172 volts for a total of 18 hours using two sequential field inversion programs with pulse ramping. The DNA/ethidium bromide fluorescence was excited on a UV transilluminator and photographed using Polaroid type 55 P/N film. The negative was analyzed using a PDI scanning densitometer and Quantity One software. […]
# [3] = tested on: human melanoma and nonmelanoma cancer cell lines; experiment: Cytotoxicity profile across the panel of human cancer cell lines; conditions: all Table 1 cell lines other than MEL-2
# Method: In the following Table 1, the extracted betulinic acid and the other pure compounds were tested for cycotoxity against the following cultured human cell lines: A431 (squamous cells), BC-1 (breast), COL-2 (colon), HT-1080 (sarcoma), KB (human oral epidermoid carcinoma), LNCaP (prostate), LU-1 (lung), MEL-2 (melanoma), U373 (glioma) and ZR-75-1 (breast).
# Cytotoxicity of the crude extracts and purified compounds was determined in a number of cultured human cancer cell lines. The cells were cultured in appropriate media and under standard conditions. To maintain logarithmic growth, the media were changed 24 hours prior to cytotoxic assays. On the day of the assay, the cells were harvested by trypsinization, counted, diluted in media, and added to 96-well plates containing test compounds dissolved in DMSO; the final DMSO concentration was 0.05%.
# The plates were incubated for three days. Following the incubation period, the cells were fixed and stained with sulforhodamine B (SRB) dye. The bound dye was liberated with Tris base, and the OD515 was measured on an ELISA reader. The growth of the betulinic acid-treated cells was determined by the OD515 values, and the growth was compared to the OD515 values of DMSO-treated control cells. Dose response studies were performed to generate ED50 values.
# The biological evaluation of the derivatives focused on the activity against human melanoma cell lines. In particular, the following betulinic acid derivatives were prepared and tested for cytotoxicity profile against human melanoma cell lines and against a number of selected nonmelanoma cell lines.
# [4] = tested on: UISO MEL-1 cells; experiment: In vivo activity against MEL-1 tumors in athymic mice; conditions: 5, 50 or 250 mg/kg/dose IP betulinic acid/PVP every fourth day, six doses
# Method: In particular, with respect to FIGS. 4 and 5, four week old athymic mice were injected subcutaneously in the right flank with 5.0×10^8 UISO MEL-1 cells. Drug treatment was initiated on the day following tumor cell injection and continued every fourth day for a total of six doses. Four control animals received 0.5 ml intraperitoneal (IP) saline, while treated animals (4 per group) received 5, 50 or 250 mg/kg/dose IP betulinic acid/PVP in dd H2O. The mice were weighed, and tumors were measured with a micrometer every third day throughout the study. Treated animals were sacrificed and autopsied on day 41, when the mean tumor volume in the control mice was approximately 0.5 cm^3. The control mice then received six doses of 50 mg/kg every fourth day beginning day 41 and were sacrificed and autopsied on day 71.
# [5] = tested on: L1210 murine lymphocytic leukemia; conditions: 200 mg/kg; cited from earlier work
# [6] = 200 and 400 mg/kg doses; cited from earlier work
# [7] = tested on: Walker 256 murine carcinosarcoma; conditions: cited from earlier work
# [8] = tested on: MEL-2 (melanoma); experiment: Cytotoxicity against cultured human melanoma cells (SRB); assay type: cell-based
# Method: The plates were incubated for three days. […] Dose response studies were performed to generate ED50 values.
structure (smiles),measurement,setting,value
"C=C(C)[C@@H]1CC[C@]2(C(=O)O)CC[C@]3(C)[C@H](CC[C@@H]4[C@@]5(C)CC[C@H](O)C(C)(C)[C@@H]5CC[C@]43C)[C@@H]12 [Compound 10, 3β-hydroxy-lup-20(29)-ene-28-oic acid]","tumor development, MEL-2, treatment from the day following cell injection (FIG. 2)","[1]; 250 mg/kg/dose IP betulinic acid/PVP every third day, six doses, p=0.0001",significantly inhibited tumor development
same,"inhibition of tumor growth, nonestablished MEL-2 tumors (FIG. 1)","[1]; 50, 250, 500 mg/kg/dose IP as betulinic acid/PVP, every fourth day, six doses from day 1, p 0.001 each dose versus control",effective inhibition of tumor growth; also recorded: greater inhibition of tumor growth at the highest dose
same,treatment period at maximum induction of the 50 Kbp fragment,[2]; 2 μg/ml betulinic acid (FIG. 3A),56 h
same,ED50 of the apoptotic response (50 Kbp fragment),[2]; MEL-2 cells treated for 56 hours (FIG. 3B),about 1.5 μg/ml
same,"ED50, other cancer cell lines tested",[3],greater than 20 μg/ml
same,activity against MEL-1 tumors (FIGS. 4 and 5),[4],showed activity against MEL-1 cells
same,"antitumor activity, L1210",[5],inactive
same,activity in Hippocratic screen,[6],inactive
same,"antitumor activity, Walker 256, subsequent report",[7]; 400 mg/kg,inactive
same,"antitumor activity, Walker 256",[7]; 300 and 500 mg/kg body weight,dose-dependent activity
same,IC50,"[8]; Homo sapiens, MEL2, 72 h, three days incubation, SRB, Table 1 and text, read-out: ED50 MEL-2",~2 µg/mL
same,ED50 (Std. Dev.) MEL-2,"[8]; derivatives, Tables 2-6",1.2 (0.1) μg/mL
same,ED50 MEL-2,"[8]; three days incubation, SRB, Table 1 and text, listed as Betulinic acid",2.0 µg/mL
